Measurements as given in patent US20100233158A1, “INDUCTION OF IMMUNE TOLERANCE” (Genzyme Corporation, priority 2002, published 2010).

System: cardiac allograft rejection
Assay: Heart transplant rejection mouse model (C57/BL6 heart into Balb/c recipient, total MHC mismatch)
Format: in vivo, mice
Details: Compound 1 alone, 75 mg/kg/day for fourteen days following surgery; untreated controls rejected after ten days; p<0.001
Procedure: The ability of a combination therapy of rapamycin and Compound 1 to inhibit transplant rejection in a mouse model was tested. […] Following surgery, the mice were divided into the following treatment groups: • Group I is a control group that was untreated. • Group II was treated with Compound 1 at a dose of 75 mg/kg/day subcutaneously for fourteen days following surgery. • Group III was treated with rapamycin at a dose of 0.3 mg/kg/day intraperitoneally for three days following surgery. • Group IV was treated with Compound 1 at a dose of 75 mg/kg/day intraperitoneally for fourteen days following surgery and with rapamycin at a dose of 0.3 mg/kg/day intraperitoneally for three days following surgery.

For N#Cc1cccc(C(C(=O)NCC(c2ccccc2)c2ccccc2)N(CCc2c[nH]cn2)C(=O)c2ccccc2C(=O)c2ccccc2)c1 (stereo not shown) [Compound 1], which “delay in the onset of rejection” value is on record?
Its value is “two to three”.
